Reference: patent US11484608B2, “Non-invasive assessment of hepatic mitochondrial metabolism by positional isotopomer NMR tracer analysis (PINTA)” (YALE UNIVERSITY, priority 2017, dated 2022)

System: primary mouse hepatocytes
Assay: In vitro glucose production, VPC and lipolysis in isolated hepatocytes
Assay type: cell-based
Summary of the method: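 Primary mouse hepatocytes were plated and cultured overnight in low-glucose DMEM, with 10% FBS for glucose production or serum-free 0.5% BSA medium for lipolysis. Media were then collected after 8 hr at 37° C for glucose, NEFA and glycerol, and VPC was derived as the PINTA VPC/VEGP ratio × glucose production. Agents were present through the 8-hr assay, and values were normalized to total protein and expressed as fold change vs vehicle.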

[1] = isolated WT hepatocytes, 100 nM glucagon, 8 hr

glucagon
increases in NEFA and glycerol production (WT hepatocytes, glucagon, not InsP3R-I deficient): 60-100% | increase in VPC flux [1]: two-fold | increase in glucose production [1]: two-fold
